Results reported in article PMC5104426, “Screening a Phage Display Library for Two Novel OmpU-Binding Peptides with Adhesion Antagonistic Activity against Vibrio mimicus” (PLoS ONE, 2016).

Tested on: rOmpU fusion protein adhesion to EPC cells
Assay: Fluorescence-based adhesion assay: rOmpU protein adhesion to EPC cells
Type: cell-based, Vibrio mimicus
Conditions: 500 μg/mL peptide mixed with equal volume of 500 μg/mL rOmpU, 1 h 28°C, then 1 h on fixed EPC cells; anti-OmpU/FITC immunofluorescence; triplicate
Procedure: Synthetic OmpU-binding peptides were measure for their ability to antagonize OmpU protein adhesion to EPC cells by fluorescence-based adhesion assay. Briefly, EPC cells (1 × 10^6 cells/mL) were seeded in 24-well cell plate containing coverslip (Corning, NY, USA) and cultured to 80% confluence. The cells were gently washed 3 times with PBS and fixed with 4% paraformaldehyde at room temperature for 15 min. After 3 washes with PBS, cells were permeabilized with 0.5% Triton X-100 (500 μL/well) for 15 min. The cells were then washed 3 times with PBS and blocked with 2% BSA for 30 min. Subsequently, 500 μg/mL of each OmpU-binding peptide or irrelevant control peptide (used as negative control) solution were respectively mixed with an equal volume of 500 μg/mL rOmpU fusion protein, and the mixture was incubated for 1 h at 28°C and added to each well. The plates were incubated for 1 h at 28°C. After 3 washes, purified rabbit anti-OmpU antibody (prepared in our previous studies) at a dilution of 1:200 in PBS was added to each well and incubated for 1 h at 28°C, followed by 3 washes in PBS. A 1:100 dilution of FITC (fluorescein isothiocyanate)-labeled goat anti-rabbit IgG (Jackson ImmunoResearch Laboratories, Inc., USA) was added to each well and incubated in the dark for 1 h. After 3 washes in PBS, 4,6-Diamidino-2-phenylindole dihydrochloride (DAPI; Ziyi Reagent Co., Shanghai, China) was used to stain the nucleus, and the coverslips were observed under a fluorescence microscope. Each experiment was performed in triplicate, each sample being tested in three wells.

Sequence	green fluorescence on the surface of EPC cells (surface-retained rOmpU)
SCTSPHCFMWLP [P2, adhesion antagonistic peptide]	little or no green fluorescence
TWTCSDVICTAR [P1, adhesion antagonistic peptide]	little or no green fluorescence
